Entries after “also recorded” stand apart in the source; their conditions may differ. Like-named read-outs stand apart in the source and are kept apart here.

In data set [1] the test system is macrophage NOS (activated macrophage homogenates). The experiment in a line: inhibition of NOS activity in activated macrophage homogenates in vitro. In kind it is biochemical. Conditions: guanidinoalkanoic acid series. The text has this:
(§1) Inhibitors of NOS are compounds which compete for the substrate binding site of NOS or other sites on the enzyme, and include both reversible and irreversible inhibitors. The present invention contemplates the use of any physiologically acceptable inhibitor which inhibits NOS activity. The effectiveness of a compound, and its relative potency as an NOS inhibitor, can be tested and routinely determined by measuring inhibition of NOS activity by monitoring the conversion of arginine to citrulline by NOS in, for example, cerebellar homogenates. A reduction in citrulline formation indicates inhibitory activity of the compound. The percent reduction in citrulline formation, compared to the amount of citrulline formed in the absence of the compound being tested, indicates the potency of the compound as an NOS inhibitor.
(§2) NOS activity was measured by monitoring the conversion of [^3 H]arginine to [^3 H]citrulline as described by Bredt and Snyder (Proc. Natl. Acad. Sci USA (1990) 87682-685). Briefly, enzyme assays contained 25 μl of soluble tissue, 50 μl of […] [^3 H]arginine and 1 mM NADPH, and 25 μl of 3 mM CaCl2. After a 15 minute incubation at room temperature, the assays were terminated with 3 ml of 20 mM Hepes (pH 5.5) with 2 mM EDTA, and were applied to 0.5 ml columns of Dowex AG50WX8 (Na^+ form). [^3 H]citrulline was quantified by liquid scintillation spectroscopy of the 3 ml flow-through.
(§3) Accordingly, the effects of 2, 4 and 24 hours of preincubations of cerebellar supernatants (FIG. 2A) and activated macrophage homogenates (FIG. 2B) with NO2 Arg were examined. The preincubation was conducted at 4° C. since NOS is unstable at higher temperature for long periods of time. Enzymatic incubation was conducted for only 5 minutes to minimize any reaction of the inhibitor with the enzyme in the course of the incubation procedure.
Macrophages were activated as described by Tayeh and Marletta (J. Biol. Chem. (1989) 264:19654-19658) with 3.5 ng/ml LPS from E. coli and 5 units/ml recombinant murine γ-interferon for 24 hours at 37° C. Cells were homogenized in 20 mM Hepes (pH 7.4).

Data set [2] relates to brain or macrophage enzyme (NOS). The experiment in a line: NOS inhibition and brain/macrophage selectivity of arginine, nitroarginine and guanidinoalkanoic acid analogs. In kind it is biochemical.
Data set [3] addresses brain NOS (cerebellar NOS) (Rattus norvegicus, UniProt P29476). The experiment in a line: inhibition of NOS activity, conversion of [^3 H]arginine to [^3 H]citrulline, cerebellar homogenates/supernatants in vitro. Conditions: for inhibition of brain NOS, in words: guanidinoalkanoic acid series.
Text: as §1
Rat cerebella were homogenized in 10 vols. (w/v) […] Tris (pH 7.4), 2 mM EDTA. Homogenates were centrifuged at 10,000×g for 15 minutes at 4° C. Supernatant preparations were used in the enzyme assays. Cerebellar tissue was dialyzed (Spectra/Por, 10,000 MWCO, EDTA-treated cellulose dialysis tubing) against 20 mM Tris (pH 7.4), 2 mM EDTA (300 ml×2) for 24 hours at 4° C.
Cerebellar homogenates were incubated with arginine derivatives for one hour at 4° C., and dialyzed overnight. Aliquots (25 μg protein) were assayed for NOS activity before and after dialysis.
as §2, §3
Cerebellar supernatants were made as described in Example 1.

Data set [4] deals with cortical cell cultures. The experiment in a line: cells. Particulars: for reversal of NO2 Arg protection from NMDA cytotoxicity: L-Arg 1 mM with 100 μM NO2 Arg, homoarginine, D-Arg, FIG. 7; for EC50: cortical cultures; for effect on NMDA-induced cell death: 300 μM NMDA (with 10 μM glycine), Hb at 500 μM; for effect on SNP-induced cell death: Hb 500 μM. It is filed as cell-based, rat. On the procedure:
Primary dissociated cell cultures were prepared from fetal rats (13-to 14-day gestation for cortex and caudate-putamen cultures and 19- to 20-day gestation for hippocampal cultures). The tissue of interest was dissected, incubated for 15 minutes in 0.027% trypsin in Brooks-Logan solution (5% phosphate-buffered saline/0.04M sucrose/10 mM Hepes/0.03M glucose, pH 7.4), and then transferred to modified Eagle's medium (MEM) 10% horse serum/10% fetal bovine serum/2 mM glutamine for trituration. Dissociated cells were plated at a density of 3-4×10^5 cells per well in polyornithine-coated 15-mm multiwell plates. After 4 days the cells were treated with 10 μg of 5-fluoro-2'-deoxyuridine to prevent proliferations of noneuronal cells. Cells were maintained in MEM/5% horse serum/2 mM glutamine in 8% CO2 /humidified atmosphere at 37° C. The medium was changed twice weekly. Mature neurons (3-4 weeks) were used.
Cells were exposed to excitatory amino acids according to the method of Koh and Choi (J. Neurosci. (1988) 8:2153-2163). Before exposure, the cells were washed three times with Tris-buffered control salt solution (CSS), containing 120 mM NaCl/5.4 mM KCl/1.8 mM CaCl2 /25 mM Tris hydrochloride, pH 7.4 at room temperature/15 mM glucose. Brief exposures to glutamate, NMDA (plus 10 μM glycine), quisqualate, and sodium nitroprusside (SNP) were performed for 5 minutes in CSS. The exposure solution was then washed away and replaced by MEM with 21 mM glucose; then the cells were placed in an incubator for 20-24 hour. Long exposures to kainate were performed in MEM/21 mM glucose for 20-24 hour in the incubator. After exposure to the excitatory amino acids, the medium was replaced by CSS/0.4% trypan blue, which stains nonviable cells. Two to four photographs (10-20×) were made of each well, and viable versus nonviable cells were counted. The cytotoxicity data represent 6-24 separate wells assayed per data point, with ≈500-1500 cells counted per well. Neuronal cell injury was also assessed by measuring the release of lactate dehydrogenase by damaged or destroyed cells into the extracellular fluid following drug exposure.
Before initiating cytotoxicity experiments with NOS inhibitors, the potency of NMDA applied for 5 minutes in inducing cell death was evaluated by examining exclusion of 0.4% trypan blue by viable cells or measuring lactate dehydrogenase released by damaged or destroyed cells into the extracellular fluid.
To examine the role of NO in other forms of glutamate neurotoxicity, the effects of NO2 Arg cytotoxicity induced by quisqualate, kainate, and NMDA were compared. […] Data are means ±SEM (n=6-24). Cell death was determined by 0.4% trypan blue exclusion by viable cells.

Data set [5] deals with NOS. Conditions: cited from earlier work.
The subject of data set [6] is cGMP formation. The data set can be described thus: cGMP formation in cortical cell cultures (RIA). It is filed as cell-based, rat. Particulars: for effect on NMDA stimulation of cGMP formation: 300 μM NMDA (plus 10 μM glycine), 1 minute, 100 μM NO2 Arg, 1 mM L-Arg, 100 units of SOD, 500 μM Hb.
Experimental: Primary dissociated cell cultures were prepared from fetal rats (13-to 14-day gestation for cortex and caudate-putamen cultures and 19- to 20-day gestation for hippocampal cultures). […] Dissociated cells were plated at a density of 3-4×10^5 cells per well in polyornithine-coated 15-mm multiwell plates. After 4 days the cells were treated with 10 μg of 5-fluoro-2'-deoxyuridine to prevent proliferations of noneuronal cells. Cells were maintained in MEM/5% horse serum/2 mM glutamine in 8% CO2 /humidified atmosphere at 37° C. The medium was changed twice weekly. Mature neurons (3-4 weeks) were used.
For determination of cGMP the cells were washed three times with CSS. […] After ether extraction, cGMP levels were determined by RIA.
Data are means ±SEM (n=6-8).
Data are means ±SEM (n=8-12).
Data set [7] has as its system cortical cell cultures. Particulars: Koh et al. (1990); cited from earlier work.

Chain of brain NOS (cerebellar NOS) (P29476 whole entry): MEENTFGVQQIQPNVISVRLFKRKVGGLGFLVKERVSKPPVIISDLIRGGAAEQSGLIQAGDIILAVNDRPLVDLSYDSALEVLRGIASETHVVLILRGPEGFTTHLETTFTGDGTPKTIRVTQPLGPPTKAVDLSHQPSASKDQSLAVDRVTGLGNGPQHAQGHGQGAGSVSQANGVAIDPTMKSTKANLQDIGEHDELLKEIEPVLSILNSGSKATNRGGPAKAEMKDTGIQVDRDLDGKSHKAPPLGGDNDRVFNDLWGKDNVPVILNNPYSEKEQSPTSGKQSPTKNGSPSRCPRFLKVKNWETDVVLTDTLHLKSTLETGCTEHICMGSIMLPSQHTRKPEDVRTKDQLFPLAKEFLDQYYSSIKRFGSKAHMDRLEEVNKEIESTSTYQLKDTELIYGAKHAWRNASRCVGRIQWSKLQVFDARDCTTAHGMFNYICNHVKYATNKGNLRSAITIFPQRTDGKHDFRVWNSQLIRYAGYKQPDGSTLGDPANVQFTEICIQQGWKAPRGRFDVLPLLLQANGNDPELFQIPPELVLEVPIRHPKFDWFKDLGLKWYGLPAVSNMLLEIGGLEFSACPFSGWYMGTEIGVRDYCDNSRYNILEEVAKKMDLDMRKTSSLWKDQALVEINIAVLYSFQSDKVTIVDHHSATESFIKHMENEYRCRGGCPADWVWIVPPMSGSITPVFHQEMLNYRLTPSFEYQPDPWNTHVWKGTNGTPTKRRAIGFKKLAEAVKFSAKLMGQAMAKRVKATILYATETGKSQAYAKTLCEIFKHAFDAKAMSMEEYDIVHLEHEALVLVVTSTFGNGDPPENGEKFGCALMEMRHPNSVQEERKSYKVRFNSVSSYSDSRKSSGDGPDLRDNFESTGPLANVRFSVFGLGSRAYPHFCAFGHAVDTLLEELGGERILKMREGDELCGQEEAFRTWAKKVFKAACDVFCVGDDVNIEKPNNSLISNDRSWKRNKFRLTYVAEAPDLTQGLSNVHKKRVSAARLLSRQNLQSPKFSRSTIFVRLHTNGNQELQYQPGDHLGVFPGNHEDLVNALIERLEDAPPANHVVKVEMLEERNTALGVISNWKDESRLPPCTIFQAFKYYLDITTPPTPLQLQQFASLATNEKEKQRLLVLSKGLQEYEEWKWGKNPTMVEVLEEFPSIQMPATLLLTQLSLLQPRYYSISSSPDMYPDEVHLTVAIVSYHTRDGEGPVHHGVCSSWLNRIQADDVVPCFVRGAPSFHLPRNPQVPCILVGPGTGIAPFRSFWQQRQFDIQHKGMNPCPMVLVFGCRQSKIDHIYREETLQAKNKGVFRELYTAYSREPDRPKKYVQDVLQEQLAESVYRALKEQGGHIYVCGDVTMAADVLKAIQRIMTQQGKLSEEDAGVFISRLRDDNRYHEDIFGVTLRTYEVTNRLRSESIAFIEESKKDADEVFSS

As to `N=C(N)NCCCCC(=O)O` [5-GPA, 5-guanidinopentanoic acid], the “inhibition of macrophage enzyme, in words” value in data set [1] is “potent inhibitors”. In addition, the “selectivity between brain and macrophage enzyme, in words” value in data set [2] is given as “good selectivity toward the macrophage enzyme”. Also, the “inhibition of brain NOS, in words” value in data set [3] is “inactive against the brain NOS”.
The like results for `N=C(N)NCCCCCC(=O)O` [6-GHA, 6-guanidinohexanoic acid] were, in that order, “potent inhibitors”, “good selectivity toward the macrophage enzyme” and “inactive against the brain NOS”.
As to `N=C(N)NCCC[C@@H](N)C(=O)O` [D-Arg, D-arginine], the “reversal of NO2 Arg protection from NMDA cytotoxicity” value (shortened to “reversal of NO2 Arg protection”) in data set [4] was “much weaker than L-Arg; also recorded: comparable to that obtained with 10 μM L-Arg”.
Regarding `N=C(N)NCCCC[C@H](N)C(=O)O` [Homoarginine, homoarginine], the “affinity for NOS” value in data set [5] (Knowles et al. (1989)) was “less affinity for NOS than L-Arg”. In data set [4], the “reversal of NO2 Arg protection” value was “reverses effects of NO2 Arg but is less potent than L-Arg”.
Regarding `N=C(N)NCCC[C@H](N)C(=O)O` [L-Arg, L-arginine], the “reversal of NO2 Arg protection” value in data set [4] is “reverses the inhibition by 100 μM NO2 Arg”; in data set [4] (listed as L-arginine), “competitively reversed by L-arginine”; in data set [4] (listed as L-arginine (L-Arg)), “completely reverses the effect of NO2 Arg”. Also, the “concentration required to obtain maximal NMDA effects” value in data set [4] (graded L-Arg added to L-Arg-free medium) came out at 100 µM. Further, the “protection against quisqualate-induced cell death” value in data set [4] (quisqualate) is “reversal by L-Arg”. In addition, in data set [6], the “effect on NMDA stimulation of cGMP formation” value is “competitively reversible by L-Arg”.
For `CNC(=N)NCCC[C@H](N)C(=O)O` [MeArg, L-N^ω -monomethylarginine], the Ki in data set [5] (Dwyer et al. (1991), read-out: Ki, inhibition of NOS activity of purified enzyme preparations) was 2 µM. The “prevention of neurotoxicity, in words” value in data set [4] is given as “prevent neurotoxicity in proportion to their relative potencies as NOS inhibitors”. The EC50 was 170 µM in data set [4] (Rattus norvegicus, NMDA and related excitatory amino acids, read-out: EC50 for preventing neurotoxicity elicited by N-methyl-D-aspartate); 170 µM in data set [4] (Rattus norvegicus, NMDA, read-out: concentration giving 50% prevention of NMDA-induced cell death). Also, the “relative potency as inhibitor of NOS activity” value in data set [3] (cerebellar supernatant preparations, FIG. 1) is listed as “NO2 Arg is a more potent inhibitor of NOS activity than MeArg”.
As to `CN[C@H](CC(=O)O)C(=O)O` [NMDA, N-methyl-D-aspartate], the CC50 in data set [4] (Rattus norvegicus, 5 min, read-out: toxic LD50) turned out to be 280 µM; in data set [4] (Rattus norvegicus, arginase-treated preparations / L-Arg-free medium, read-out: 50% lethal concentration), 7500 µM. Moreover, the cytotoxicity at 300 µM in data set [4] (Rattus norvegicus, 5 min, 300 μM, 5 minutes, read-out: cell death at 300 μM NMDA) was 60%; in data set [4] (Rattus norvegicus, 300 μM NMDA + 10 μM glycine alone, read-out: Cell death, % ± SEM (NMDA)), 57.8 ± 2.6%. Besides, the “increase of the 50% lethal concentration of NMDA” value in data set [4] (arginase-treated preparations / L-Arg-free medium) was over 20 fold.
As for `N[C@@H](CCC(=O)O)C(=O)O` [glutamate], the “Cell death, % ± SEM (glutamate)” value in data set [4] (500 μM glutamate alone) came out at 48.4 ± 4.4%.
Take `C=C(C)[C@H]1CN[C@H](C(=O)O)[C@H]1CC(=O)O` [kainate]: the “neurotoxic action relative to NMDA” value in data set [7] was “act more slowly and less potently than NMDA”. Besides, in data set [4] (Rattus norvegicus, read-out: Cell death, % ± SEM (kainate)), the cytotoxicity at 100 µM is 81.4 ± 7.1%.
For `N[C@@H](Cn1oc(=O)[nH]c1=O)C(=O)O` [quisqualate], the “neurotoxic action relative to NMDA” value in data set [7] is “act more slowly and less potently than NMDA”. For the same compound, the cytotoxicity at 500 µM in data set [4] (Rattus norvegicus, 500 μM quisqualate alone, read-out: Cell death, % ± SEM (quisqualate)) was found to be 64.2 ± 3.7%.
Take “Hb: reduced hemoglobin (Hb), which binds NO”: in data set [4], the “effect on NMDA-induced cell death” value is “completely prevents NMDA-induced cell death; also recorded: reverses cell death” and the “effect on SNP-induced cell death” value is listed as “completely prevents SNP-induced cell death; also recorded: completely reverses SNP-mediated cytotoxicity”. In data set [4] (listed as Hemoglobin), the “effect on NMDA-induced cell death” value was “prevents neurotoxic effects of both N-methyl-D-aspartate and sodium nitroprusside”; the “effect on SNP-induced cell death” value is “prevents neurotoxic effects of both N-methyl-D-aspartate and sodium nitroprusside”. Moreover, the “effect on NMDA stimulation of cGMP formation” value in data set [6] is reported as “antagonized”. Further, the “effect on cGMP levels in cortical cells (SNP)” value in data set [6] (SNP, 1-minute exposure) was “blocked by Hb; also recorded: completely reverses SNP-mediated cytotoxicity and cGMP formation”.

The values are drawn from US5266594A, “Inhibitors of nitric oxide synthase and use thereof to prevent glutamate neurotoxicity” (priority 1992, dated 1993).
